From patent US20250008959A1, “HERBICIDES AND USE THEREOF” (Projini Agchem LTD, priority 2021, published 2025)

Columns and labels:
[1] = target: T1, AtOASS (O-acetyl serine sulfhydrylase from Arabidopsis thaliana) (Arabidopsis thaliana, UniProt P47998); assay: Isothermal titration calorimetry (ITC) binding to OASS; conditions: for Kd: OASS titrated into compound in ITC cell, single binding model
T1 construct: GST (N, cleaved yes); made in house; host or cells: E. coli Rosetta (DE3)
Excerpt: To evaluate the ability of the molecules to bind AtOASS (O-acetyl serine sulfhydrylase from Arabidopsis thaliana), the protein was placed in the ITC syringe and was titrated with the molecules that were placed in the ITC cell (see Examples section below). The direct dissociation binding constant (Kd) was then extracted from the binding curve using a single binding model, wherein a low Kd value corresponds to a stronger binding affinity.
To evaluate the binding of the small molecules to the enzyme OASS, the purified protein was placed in a 6-8 MWCO dialysis bag in 30 mM phosphate buffer, 30 mM NaCl, 1 mM TCEP, and 5% dimethyl sulfoxide. Sequential buffer exchange dialyses were executed for 12 hours each at 4° C. until dilution of >10,000 was achieved. Before the execution of the ITC binding experiment, the OASS was placed in the ITC syringe at a concentration of 400 μM and each of the small molecules was dissolved in the same dialysis buffer to a final concentration of 40 μM in the ITC cell. ITC experiments were conducted by titrating the OASS to the compounds in the cell. The ITC binding constant was evaluated using the build-in analysis software.
The designed de-novo herbicidal compounds were synthesized and evaluated for their in vitro and in planta activity. After dissolving the molecules to a stock of 50 mM in DMSO, binding and competition with the SAT-derived peptides were evaluated using ITC and FP. ITC measures the direct heat change occurring due to the interaction of a pair of molecules. ITC has certain advantages, such as the capability to detect a relatively broad range of binding affinities, being a label-free method, and providing a wide set of interaction parameters, such as affinity, stoichiometry, enthalpy, and entropy of binding. To evaluate the ability of the molecules to bind AtOASS, the protein was placed in the ITC syringe and was titrated with the molecules that were placed in the ITC cell. The direct dissociation binding constant (Kd) was then extracted from the binding curve using a single binding model. Two consecutive experiments were combined using the built in ITC module to enable better quantification. A low Kd value corresponds to a stronger binding affinity.

[2] = target: T2, OASS-SAT complex (AtOASS with SAT-derived peptide) (Arabidopsis thaliana, UniProt P47998); assay: Fluorescence polarization (FP) competition with FITC-labeled SAT-derived peptide bound to OASS; format: binding; conditions: competition with FITC-SAT peptide 200 nM, OASS 2.2 μM; for IC50: single site inhibition model
T2 construct: GST (N, cleaved yes); made in house; host or cells: E. coli Rosetta (DE3)
T2 sequence (P47998 whole entry, one chain of several): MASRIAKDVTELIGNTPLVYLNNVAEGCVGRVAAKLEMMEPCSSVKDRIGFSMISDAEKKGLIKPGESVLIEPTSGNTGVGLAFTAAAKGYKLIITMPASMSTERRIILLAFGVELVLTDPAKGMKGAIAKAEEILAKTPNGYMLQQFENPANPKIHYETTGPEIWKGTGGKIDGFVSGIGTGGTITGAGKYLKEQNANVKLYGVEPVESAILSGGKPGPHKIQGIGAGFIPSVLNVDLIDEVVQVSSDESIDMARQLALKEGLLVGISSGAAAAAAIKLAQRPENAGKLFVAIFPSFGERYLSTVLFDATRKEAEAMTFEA
Protocol: Molecules were also tested for their ability to compete with the OASS binding to the SAT-derived peptide via a fluorescence polarization (FP) competition assay wherein the N-terminus labeled peptide was incubated with the AtOASS (see Examples section below). High FP values correspond to the peptide-bound state (low molecule concentrations) and low FP values correspond to the peptide-free state (low FP values). To extract the IC50, the FP data were fitted to a single site inhibition model in PRISM by GraphPad Software. The corresponding IC50 values were extracted, whereas low IC50 values correspond to molecule that better competes with the peptide binding to AtOASS. Fluorescence polarization (FP) measurements were made on samples arrayed in 96-well plates by using BioTek H1 Synergy instrument equipped with FP module. […] The peptide in a concentration of 200 nM was incubated with OASS at a concentration of 2.2 μM in each well. Variable concentrations of each molecule starting from 100 μM down to 0.048 μM were added to evaluate the ability of each molecule to compete off the FITC labeled peptide bound to OASS. Fluorescence experiments were executed with an Em/Exc wavelengths of 480/520 nm. All measurements were done in triplicate. Experimental polarization data from simple and competitive binding experiments were fitted using GraphPad Prism, with error bars representing SD. Molecules were also tested for their ability to compete with the OASS binding to the SAT-derived peptide via a fluorescence polarization (FP) competition assay. The N-terminus labeled peptide was incubated with the AtOASS in each of the wells in a 96-well plate. Various concentrations of the molecules were added and the FP values were recorded. High FP values correspond to the peptide-bound state (low molecule concentrations) and low FP values correspond to the peptide-free state (low FP values). To extract the IC50, the FP data were fitted to a single site inhibition model in graphpad prism. The corresponding IC50 values were extracted. Low IC50 values correspond to molecule that better competes with the peptide binding to AtOASS.

Arabidopsis thaliana = assay: Root elongation in plates (in planta root elongation assay); format: in vivo; conditions: 168 h, A. thaliana on MS medium plates, 7 days, read-out: Root-growth inhibition %
Protocol: 6-well plates were prepared in a biological hood with sterile half Murashige and Skoog mineral medium (MS; Duchefa, Haarlem, Netherlands) containing 1% sucrose (w/v), pH 5.8. Tested molecules were dissolved in 50 mM DMSO and diluted to various concentrations 1,000-fold greater than the final desired concentration the MS medium maintaining a final concentration of 0.1% DMSO. MS medium with 0.1% DMSO was used as a negative control. After 7 days the plates were scanned and the root length was calculated using the imageJ software. […] Further sterilization was done by washing the seeds with 50% hypochlorite and 0.2% Triton x-100 for 10 minutes followed by five cycles of washing with sterile water. Six seeds were placed in each well, and the plates were covered and sealed with parafilm. Plates were placed vertically at 4° C. for two days and then transferred to a growth chamber for seven days (22-24° C.) at day/light cycles of 16/8 hours. Following the in vitro evaluation, selected molecules were tested for their ability to inhibit A. thaliana root elongation on agar plates. Seeds were plated on medium containing the molecules dissolved in the indicated concentrations and root length was measured after 6 or 7 days when the root in the non-treated plate reached the end of the well.

T1 sequence (P47998 whole entry): as the sequence (P47998 whole entry, one chain of several) above

Row | Structure (SMILES) | Kd [1] | FP % inhibition [2] | IC50 [2] | direct binding to AtOASS by ITC (in vitro screening of purchased virtual hits) ([1]; result in words) | inhibition at 50 µM (Arabidopsis thaliana)
1 | O=C(O)c1cc2c(c(S(=O)(=O)Nc3cccc(NC(=O)C4CC4)c3)c1)CCC2 [PJL-39] | 10.1 µM | 12% | 127 µM |  | 18%
2 | Cc1ccnn1-c1cccc(NS(=O)(=O)c2cc(C(=O)O)cc3c2CCC3)c1 [PJL-43] | 9.9 µM | 17% | 87 µM |  | 6%
3 | CCc1nnc(NC(=O)c2ccccc2-c2ccccc2C(=O)O)s1 [PJL-66] | 8.6 µM | 17% | 30.8 µM |  | 0%
4 | O=C(O)c1cc2c(c(S(=O)(=O)Nc3cccc(-c4n[nH]c(C5CC5)n4)c3)c1)CCC2 [PJL-71] | 6.11 µM | 24% | 21 µM |  | 17%
5 | O=C(O)c1cc2c(c(S(=O)(=O)Nc3cccc(-n4cccn4)c3)c1)CCC2 [PJL-76] | 18.3 µM | 16% |  |  | 0%
6 | O=C(O)c1cc(F)ccc1NS(=O)(=O)c1cnc(-c2ccccc2)o1 [PJL-81] | 28 µM | 23% | 32 µM |  | 15%
7 | O=C(O)c1ccccc1NS(=O)(=O)c1cnc(-c2ccccc2)s1 [PJL-83] | 9.9 µM | 17% | 74 µM |  | 0%
8 | O=C(O)c1cc(F)ccc1NS(=O)(=O)c1cnn(-c2cccc(C(F)(F)F)c2)c1 [PJL-84] | 10.9 µM | 24% | 44 µM |  | 47%
9 | O=C(O)c1cccc(NC2=C(Cl)C(=O)N(c3ccc(Cl)c(Cl)c3)C2=O)c1 [PJL-103] | 9.37 µM | 21% | 73 µM |  | 0%
10 | COc1ccc(-c2csc(NC(=O)c3ncccc3-c3ccccc3C(=O)O)n2)cc1 [PJL-127] | 7.6 µM | 38% | 15.3 µM |  | 100%
11 | CC(C)n1nnc(-c2ccc(O)c(NC(=O)Cc3ccccc3C(=O)O)c2)n1 [PJL-208] | 19.8 µM | 16% | 97 µM |  | 0%
12 | O=C(O)c1cccc(NC2=C(Cl)C(=O)N(c3cc(Cl)ccc3Cl)C2=O)c1 [PJL-211] | 11.6 µM | 17% | 63.9 µM |  | 72%
13 | COc1ccc(NC(=O)c2ccc(NS(=O)(=O)c3cc(C(=O)O)ccc3OC)cc2)cc1 [PJS-31] | 5.6 µM | 11% | 225 µM |  | 0%
14 | O=C(O)c1cc2c(c(S(=O)(=O)Nc3ccc(OCc4ccccn4)c(Cl)c3)c1)CCC2 [PJS-39] | 7.5 µM | 14% | 72 µM |  | 2.3%
15 | O=C(O)c1ccccc1-c1ccccc1C(=O)Nc1cccc(C(F)(F)F)c1 [PJS-212] | 8.11 µM | 34% | 10.6 µM |  | 34%

The next molecules have a lower Kd [1] than those just listed; values first:

Row | Kd [1] | FP % inhibition [2] | IC50 [2] | direct binding to AtOASS by ITC (in vitro screening of purchased virtual hits) ([1]; result in words) | Structure (SMILES) | inhibition at 50 µM (Arabidopsis thaliana)
16 | 4.8 µM | 19% | 34 µM | showed direct binding to AtOASS by ITC | O=C(O)c1cc(F)ccc1NS(=O)(=O)c1cnc(-c2ccc(F)cc2)s1 [PJL-41] | 85%
17 | 1.27 µM | 32% | 4.8 µM |  | O=C(Nc1cccc(NC(=O)c2ccccc2-c2ccccc2C(=O)O)c1)c1ccco1 [PJL-60] | 0%
18 | 2 µM | 31% | 6.7 µM |  | O=C(Nc1nccs1)c1cccc(NC(=O)c2ccccc2-c2ccccc2C(=O)O)c1 [PJL-62] | 0%
19 | 1.48 µM | 34% | 6.3 µM |  | O=C(Nc1cccc(O)c1)c1cccc(NC(=O)c2ccccc2-c2ccccc2C(=O)O)c1 [PJL-63] | 12%
20 | 3.4 µM | 23% | 12.8 µM |  | O=C(O)c1ccccc1-c1ccccc1C(=O)Nc1cccc(O)c1 [PJL-64] | 23%
21 | 1.77 µM | 38% | 4 µM |  | O=C(O)c1ccccc1-c1ccccc1C(=O)Nc1cccc(-c2nc3ccccc3[nH]2)c1 [PJL-65] | 0%
22 | 2.38 µM | 30% | 20.9 µM |  | CC(C)(C)NC(=O)c1ccc(NC(=O)c2ccccc2-c2ccccc2C(=O)O)cc1 [PJL-67] | 9%
23 | 3.4 µM | 32% | 10 µM |  | O=C(O)c1ccccc1-c1ccccc1C(=O)Nc1cccc(NNc2nccs2)c1 [PJL-68] | 0%
24 | 5.3 µM | 21% |  |  | O=C(Cc1ccccc1C(=O)O)Nc1cccc(C(=O)Nc2nccs2)c1 [PJL-93] | 0%
25 | 0.94 µM | 45% | 1.9 µM |  | Cc1cc(-c2cc(NC(=O)c3ccccc3-c3ccccc3C(=O)O)[nH]n2)ccc1OCCN1CCOCC1 [PJL-106] | 0%
26 | 0.32 µM | 41% | 1.9 µM |  | NCCc1ccc(-c2csc(NC(=O)c3ccccc3-c3ccccc3C(=O)O)n2)cc1 [PJL-107] | 29%
27 | 2.3 µM | 43% | 5.99 µM |  | COc1ccc(C(=O)O)c(-c2ccccc2C(=O)Nc2nc(-c3ccc(Cl)cc3Cl)cs2)c1 [PJL-118] | 47%
28 | 3 µM | 58% | 2.1 µM |  | COc1ccc(-c2csc(NC(=O)c3cc(C)ccc3-c3ccccc3C(=O)O)n2)cc1 [PJL-126] | 93%
